The text below walks through data of US20240277829A1, “HIV-1 VACCINATION AND SAMT-247 MICROBICIDE TO PREVENT HIV-1 INFECTION” (priority 2021, published 2024).

The experiment concerns mucosal Th1 and Th2 cells. Nature of the experiment: Frequencies and cytokine levels of macaque rectal mucosal T cells following SAMT-247 and PMA stimulation. In kind it is cell-based. An excerpt:
Additionally, rectal tissue from 9 macaques was used for an in vitro study. The age-matched macaques from this separate study (P204) included 4 animals vaccinated against HIV and 5 naïve animals, all challenged with SHIV. Rectal tissue was obtained post challenge from 7 infected and 2 uninfected animals for the P204 study analysis. Extra cells were available from that collection and were used here for the in vitro study.
Frequencies and cytokine levels of macaque rectal mucosal NK cells and T cells following SAMT-247 and PMA stimulation. NK/ILC and T cell frequencies and cytokine levels were measured in macaque rectal mucosa. Freshly collected rectal biopsies were processed to single cells and cultured in R10 in the presence/or absence of SAMT-247 and/or PMA for 12 hours. Subsequently, cells were stained for live cells with Live/Dead Blue dye (cat. #L34962, 0.5 μl) from Thermofisher; followed by surface staining with the following: BUV737 anti-CD3 (SP34-2; cat. #741872, 5 μl), BV711 anti-CD4 (L200; cat. #563913, 5 μl), BV650 anti-NKp44 (P44-8; cat. #744302, 5 μl), Alexa700 anti-CD20 (2H7; cat. #560631, 5 μl), BV786 anti-CD45 (D058-1283; cat. #563861, 5 μl) from BD Biosciences; APC-H7 anti-CD11b (ICRF44; cat. #47-0118-42, 5 μl), PE-Cy5 anti-CD95 (ICRF44; cat. #15-0959-42, 5 μl) from eBioscience; BV570 anti-CD8 (RPA-T8; cat. #301038, 5 μl), BV605 anti-CCR6 (G034E3; cat. #353420, 5 μl), APC anti-CXCR3 (G025H7; cat. #353708, 5 μl), from Biolegend and PE-Cy7 anti-NKG2A (Z199; cat. #B10246, 5 μl) from Beckman coulter for 30 minutes at room temperature. This was followed by permeabilization with a FOX3-transcription buffer set (cat. #00-5523-00) from eBioscience according to the manufacture's recommendation and subsequently intracellular staining with the following: BV750 anti-TNF-α (MAB11; cat. #566359, 5 μl), BUV395 anti-IFN-γ (B27; cat. #563563, 5 μl), BV510 anti-GranB (GB11; cat. #563388, 5 μl), BV421 anti-IL-10 (JES3-9D7; cat. #564053, 5 μl) from BD Biosciences; PE-Cy5.5 anti-IL-17 (BL168; cat. #512314, 5 μl) from Biolegend; and FITC anti-Perforin (pf-344; cat. #3465-7, 5 μl) from MABTECH for 30 minutes at room temperature. Flow cytometry acquisitions were performed on a FACSymphony A5 and examined using FACSDiva software (BD Biosciences).

“Also recorded” adds a separate entry of the source. Bounds are passed on as bounds.

Take `CCCCCCCCCCCCCC(=O)O[C@@H]1[C@@H](C)[C@@]2(O)[C@@H](C=C(CO)C[C@]3(O)C(=O)C(C)=C[C@@H]23)[C@@H]2C(C)(C)[C@]12OC(C)=O` [PMA]: the “overall mucosal Th1 and Th2 cell frequencies” value (PMA stimulation) is given as “did not change”. Further, the “Cytokines, Unstim vs PMA Stimulation” value was “>TNF-α; also recorded: >IL-10; also recorded: >IFN-γ” (mucosal Th1) and “>IFN-γ; also recorded: >TNF-α; also recorded: >IL-10” (mucosal Th2).
